Paper PMC9434261, “Plant peptidoglycan precursor biosynthesis: Conservation between moss chloroplasts and Gram-negative bacteria” (Plant Physiology, 2022)
Square brackets hold non-standard residues; d marks the D form. Peptide text beside a SMILES is read from it.

Experiments:
[1] = molecular target: T1, PaMurF (Pseudomonas aeruginosa, UniProt Q9EY48); test: coupled ADP-release assay, tripeptide made in situ by MurE; type: biochemical; settings: with UDP-MurNAc-D,L-DAP tripeptide (made in situ by MurE) and ATP
T1 construct: gene murF; recombinant, overexpressed and purified as in Majce et al. 2013
T1 sequence (Q9EY48 1-458): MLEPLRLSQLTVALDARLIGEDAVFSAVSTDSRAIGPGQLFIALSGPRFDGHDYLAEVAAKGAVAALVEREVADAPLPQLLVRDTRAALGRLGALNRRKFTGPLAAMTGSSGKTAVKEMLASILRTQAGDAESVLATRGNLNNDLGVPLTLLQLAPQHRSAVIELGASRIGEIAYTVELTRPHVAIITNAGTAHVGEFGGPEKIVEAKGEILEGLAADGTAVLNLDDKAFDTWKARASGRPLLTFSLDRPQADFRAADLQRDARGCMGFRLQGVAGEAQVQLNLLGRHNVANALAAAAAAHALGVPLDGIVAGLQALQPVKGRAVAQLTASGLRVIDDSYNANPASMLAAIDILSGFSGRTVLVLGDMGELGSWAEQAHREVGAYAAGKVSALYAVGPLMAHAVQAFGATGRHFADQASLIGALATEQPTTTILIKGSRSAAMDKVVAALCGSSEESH

[2] = molecular target: T2, Streptococcus pneumoniae Pn16 MurE (Streptococcus pneumoniae, UniProt Q8CWQ5); test: coupled pyruvate kinase/lactate dehydrogenase ADP-release assay, A340; type: biochemical; settings: 150 µM L-Lys, 375 µM UDP-MurNAc-dipeptide, ATP; 37 °C
T2 construct: recombinant, overexpressed and purified as in Blewett et al. 2004
T2 sequence (Q8CWQ5 1-481): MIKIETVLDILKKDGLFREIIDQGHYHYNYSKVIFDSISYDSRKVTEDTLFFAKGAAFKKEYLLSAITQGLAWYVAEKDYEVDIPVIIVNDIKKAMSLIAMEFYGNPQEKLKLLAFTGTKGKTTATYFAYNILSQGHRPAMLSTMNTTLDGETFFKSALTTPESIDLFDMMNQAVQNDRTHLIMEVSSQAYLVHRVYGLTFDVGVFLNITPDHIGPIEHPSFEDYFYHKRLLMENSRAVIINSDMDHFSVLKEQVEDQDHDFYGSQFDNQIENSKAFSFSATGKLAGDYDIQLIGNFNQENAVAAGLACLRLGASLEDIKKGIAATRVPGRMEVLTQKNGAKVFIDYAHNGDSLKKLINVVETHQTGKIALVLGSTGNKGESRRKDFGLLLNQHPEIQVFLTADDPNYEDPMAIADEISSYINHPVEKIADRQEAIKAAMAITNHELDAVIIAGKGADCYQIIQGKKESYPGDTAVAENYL

| Compound | coupled ADP-release assay, tripeptide made in situ by MurE [1] | coupled pyruvate kinase/lactate dehydrogenase ADP-release assay, A340 [2] |
| --- | --- | --- |
| C[C@@H](N)C(=O)N[C@H](C)C(=O)O [D-Ala–D-Ala] (H-[dA]-[dA]-OH) | MurF ligase with D-Ala–D-Ala as the second substrate |  |
| CC(=O)N[C@H]1[C@@H](OP(=O)(O)OP(=O)(O)OC[C@H]2O[C@@H](n3ccc(=O)[nH]c3=O)[C@H](O)[C@@H]2O)O[C@H](CO)[C@@H](O)[C@@H]1O[C@H](C)C(=O)N[C@@H](C)C(=O)N[C@H](CCC(=O)O)C(=O)O [UDP-MurNAc-Ala-Glu, Uridine diphospho N-acetylmuramyl-L-alanyl-D-glutamate] |  | lysylation of UDP-MurNAc-Ala-Glu was also assayed with the L-Lys-specific Streptococcus pneumoniae Pn16 MurE |
